Test results taken from patent US6492416B1, “4,5-diaryl-3(2H)-furanone derivatives as cyclooxygenase-2 inhibitors” (Pacific Corporation, priority 1999, dated 2002).
Converted amounts (≈) assume the structure as drawn.

Tests used:
COX-1 = target: T1, COX-1 (Mus musculus, UniProt P22437); experiment: Evaluation of COX-1 activity: PGE2 formation in mouse peritoneal macrophages without aspirin and LPS treatment; format: cell-based; details: for IC50: read-out: IC50, μg/ml COX-1 (converted)
T1 sequence (P22437 27-602): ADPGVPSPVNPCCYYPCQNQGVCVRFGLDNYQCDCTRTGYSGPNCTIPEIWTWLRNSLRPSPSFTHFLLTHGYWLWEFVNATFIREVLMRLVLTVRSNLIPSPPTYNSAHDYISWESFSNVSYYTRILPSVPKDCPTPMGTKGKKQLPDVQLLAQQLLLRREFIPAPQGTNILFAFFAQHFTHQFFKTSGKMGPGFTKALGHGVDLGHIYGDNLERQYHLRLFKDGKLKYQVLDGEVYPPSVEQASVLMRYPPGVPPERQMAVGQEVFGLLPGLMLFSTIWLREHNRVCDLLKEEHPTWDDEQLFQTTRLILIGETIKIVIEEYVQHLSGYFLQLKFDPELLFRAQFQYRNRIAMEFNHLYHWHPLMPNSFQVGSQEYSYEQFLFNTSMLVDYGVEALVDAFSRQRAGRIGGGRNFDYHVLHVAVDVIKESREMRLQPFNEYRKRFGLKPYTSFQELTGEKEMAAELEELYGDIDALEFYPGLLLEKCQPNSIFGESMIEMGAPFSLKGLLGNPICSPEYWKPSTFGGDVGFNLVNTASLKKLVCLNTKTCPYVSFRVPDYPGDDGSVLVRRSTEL
Method: (§1) Evaluation of in vitro COX-2 and COX-1 Activity [J. Pharmacol. Exp. Ther. 166, 96 (1969)]
(§2) The abdominal skin of a C57BL/6 mouse was sanitized with 70% aqueous ethanol, and was removed without damaging the peritoneum. 5 ml of cold phosphate buffer solution (PBS) was then injected into the abdominal cavity. After a minute, the peritoneal fluid containing the macrophages was collected using a syringe and a needle. The collected fluid was centrifuged for 5 min at 1500 rpm to afford pellets of cells. The pellets were then dispersed in the RPMI-1640 culture medium containing 100 units/ml penicillin and 100 μg/ml streptomycin.
(§3) The pellets dispersed as above were treated with 500 μM aspirin in order to knock out the activity of the COX-1 enzymes in the cells. The suspension was then diluted with the RPMI-1640 medium to contain 1×10^6 cells/ml. 100 μl of the suspension was added to each well of a 96-well ELISA plate. Then the plate was incubated for 2 hrs at 37° C. under 5% CO2 in order to fix the macrophages onto the plate. The cells, which were not fixed onto the plate were removed by washing with PBS two times. The purity of macrophages obtained thereby was confirmed by differential counting. The RPMI-1640 medium containing 3% fetal bovine serum albumin was added to each well of the plate, which was followed by stimulation with 10 μg/ml lipopolysaccharide (LPS). Usually 5×10^5 cells/ml were present by this preparation. The LPS-treated suspensions were incubated for 16 hours at 37° C. under 5% CO2 to induce COX-2. Then the culture medium was removed and the macrophages were washed two times with PBS. Then 130 μl RPMI-1640 culture medium was added to each well and the macrophage solutions were incubated at 37° C. for 10 minutes, which was followed by the treatment with 10 μM arachidonic acid and an appropriate amount of compounds of this invention. The plate was incubated for another 10 minutes. The upper solution was collected using a micropipette and was subjected to determination of PGE2 amount in the solution. The amount of PGE2 present in the collected solution was determined either by a known radio-immuno assay or by a known enzyme-immunoassay [Methods in Enzymol. 86, 258 (1982); Methods in Enzymol. 187, 24 (1990)]. The extent of COX-2 inhibition by a compound of the present invention was calculated by assuming, that the amount of PGE2 formed with the treatment of 10 μg/ml arachidonic acid was used is the maximum possible amount of PGE2, and that the amount of PGE2 formed without the treatment of arachidonic acid is the minimum possible amount of PGE2.
In the evaluation of COX-1 inhibitory activity by a compound of the present invention, the same procedures employed for evaluation of COX-2 activity were employed, except omitting the following two steps: 1) the treatment with aspirin for knockout of COX-1 activity and 2) treatment with LPS for induction of COX-2.
(§4) In order to determine IC50 for a compound of this invention, enzymatic activities were measured at multiple concentrations of compounds of this invention around IC50 of the compound. Usually enzymatic activities at 4˜5 concentrations were measured to calculate out IC50 for a compound of this invention.

COX-2 = target: T2, COX-2 (Mus musculus, UniProt Q05769); experiment: Evaluation of COX-2 activity: PGE2 formation in aspirin-treated, LPS-stimulated mouse peritoneal macrophages; format: cell-based; details: for IC50: read-out: IC50, μg/ml COX-2 (converted)
T2 sequence (Q05769 18-604): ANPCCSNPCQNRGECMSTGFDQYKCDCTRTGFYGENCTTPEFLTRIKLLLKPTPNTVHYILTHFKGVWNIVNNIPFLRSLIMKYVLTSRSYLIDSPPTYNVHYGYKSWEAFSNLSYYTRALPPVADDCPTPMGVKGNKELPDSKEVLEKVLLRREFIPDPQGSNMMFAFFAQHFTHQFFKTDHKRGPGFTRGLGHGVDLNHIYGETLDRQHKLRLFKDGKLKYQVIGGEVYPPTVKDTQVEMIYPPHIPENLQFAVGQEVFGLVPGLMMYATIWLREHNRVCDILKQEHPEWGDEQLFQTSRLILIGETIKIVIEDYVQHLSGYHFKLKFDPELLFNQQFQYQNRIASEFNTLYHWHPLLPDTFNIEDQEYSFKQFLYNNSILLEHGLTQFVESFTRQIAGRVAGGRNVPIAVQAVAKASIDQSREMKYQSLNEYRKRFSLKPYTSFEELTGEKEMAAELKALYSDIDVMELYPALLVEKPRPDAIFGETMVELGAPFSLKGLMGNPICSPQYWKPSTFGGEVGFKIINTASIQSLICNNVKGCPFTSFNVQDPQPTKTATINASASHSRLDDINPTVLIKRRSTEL
Method: as §1, §2
as §3, with “The purity of macrophages obtained thereby was confirmed by differential counting.” left out, “Usually 5×10^5 cells/ml were present by this preparation.” left out
as §4

Structure (SMILES)	IC50, μg/ml COX-1 (COX-1) [µg/mL]	melting point [°C]	IC50, μg/ml COX-2 (COX-2) [µg/mL]	IC50 (COX-1) [µM]	IC50 (COX-2) [µM]
CC1(C)OC(c2ccc(S(C)(=O)=O)cc2F)=C(c2ccc(F)cc2)C1=O [Example 324]	3 (≈ 7.93 µM)	150 to 152	0.03 (≈ 0.0793 µM)	–	–
CCC1(CC)OC(c2ccc(S(C)(=O)=O)cc2)=C(c2ccc(F)c(Cl)c2)C1=O [Example 254]	3 (≈ 7.09 µM)	173 to 174	0.03 (≈ 0.0709 µM)	–	–
CC1(C)OC(c2ccc(S(C)(=O)=O)cc2)=C(c2cc(F)ccc2F)C1=O [Example 103]	20 (≈ 52.9 µM)	141 to 142	0.03 (≈ 0.0793 µM)	–	–
CC1(C)OC(c2ccc(S(N)(=O)=O)c(Cl)c2)=C(c2cc(F)cc(F)c2)C1=O [Example 371]	200 (≈ 483 µM)	173 to 174	0.02 (≈ 0.0483 µM)	–	–
CC1(C)OC(c2ccc(S(N)(=O)=O)c(Cl)c2)=C(c2cccc(Cl)c2)C1=O [Example 368]	7 (≈ 17 µM)	162 to 163	0.02 (≈ 0.0485 µM)	–	–
CC1(C)OC(c2ccc(S(N)(=O)=O)cc2F)=C(c2ccccc2)C1=O [Example 332, 5-{4-(Aminosulfonyl)-2-fluorophenyl}-2,2-dimethyl-4-phenyl-3(2H)-furanone]	5 (≈ 13.8 µM)	79 to 81	0.03 (≈ 0.083 µM)	–	–
CC1(C)OC(c2ccc(S(N)(=O)=O)cc2)=C(c2ccc(O)cc2)C1=O [Example 151]	>10	164 to 165	0.0188 (≈ 0.0523 µM)	–	–
CCC1(CC)OC(c2ccc(S(C)(=O)=O)cc2)=C(c2ccc(C)cc2)C1=O [Example 245]	3 (≈ 7.8 µM)	96 to 97	0.03 (≈ 0.078 µM)	–	–
CSc1ccc(C2=C(c3cc(F)cc(F)c3)C(=O)C(C)(C)O2)cc1Br [Example 340]	30 (≈ 70.5 µM)	115 to 116	10 (≈ 23.5 µM)	–	–
CCC1(C)OC(c2ccc(S(C)(=O)=O)cc2)=C(c2cccc(C(F)(F)F)c2)C1=O (stereo not drawn) [Example 194]	–	45 to 46	–	47.1	0.118
CC(=O)c1cccc(C2=C(c3ccc(S(C)(=O)=O)cc3)OC(C)(C)C2=O)c1 [Example 5, 4-(3-acetylphenyl)-2,2-dimethyl-5-{4-(methylsulfonyl)phenyl}-3(2H)-furanone]	50 (≈ 130 µM)	189 to 190	0.05 (≈ 0.13 µM)	–	–
CS(=O)(=O)c1ccc(C2=C(c3cccc(F)c3)C(=O)C3(CCOCC3)O2)cc1 [Example 261, 3-(3-Fluorophenyl)-2-{4-(methylsulfonyl)phenyl}-1,8-dioxa-spiro[4,5]dec-2-en-4-one]	300 (≈ 745 µM)	–	1 (≈ 2.48 µM)	–	–
CC1(C)OC(c2ccc(S(C)(=O)=O)c(Cl)c2)=C(c2ccccc2)C1=O [Example 357, 5-{3-Chloro-4(methylsulfonyl)phenyl}-2,2-dimethyl-4-phenyl-3(2H)-furanone]	30 (≈ 79.6 µM)	–	0.05 (≈ 0.133 µM)	–	–
CCC1(C)OC(c2ccc(S(C)(=O)=O)cc2)=C(c2cccc(OC)c2)C1=O (stereo not drawn) [Example 200]	–	–	–	77.6	0.776
COc1ccc(C2=C(c3ccc(S(N)(=O)=O)cc3)OC(C)(C)C2=O)cc1OC [Example 24, 5-{4-(Aminosulfonyl)phenyl}-4-{3,4-(dimethoxy)phenyl}-2,2-dimethyl 3(2H)-furanone]	6.97 (≈ 17.3 µM)	–	0.034 (≈ 0.0843 µM)	–	–
CCC1(C)OC(c2ccc(S(C)(=O)=O)cc2)=C(c2cccc(C(C)C)c2)C1=O (stereo not drawn) [Example 201]	–	–	–	50.2	0.251
C[S+]([O-])c1ccc(C2=C(c3cccc(F)c3)C(=O)C(C)(C)O2)cc1F (stereo not drawn) [Example 290, 2,2-Dimethyl-5-{3-fluoro-4-(methylsulfinyl)phenyl)-4-(3-fluorophenyl)-3(2H)-furanone]	20 (≈ 55.2 µM)	–	0.3 (≈ 0.828 µM)	–	–
